Source: US20090137662A1, “SYNERGY OF DOPAMINE D2 AND ADENOSINE A2 RECEPTORS ACTIVATES PKA SIGNALING VIA BETA/GAMMA DIMERS” (The Regents of the University of California, priority 2002, published 2009)
Like-named read-outs stand apart in the source and are kept apart here.

Tests used:
δ-PKC [1] = assay: Translocation of δ-PKC in NG108-15 and CHO cells expressing the applicable receptor; format: cell-based
Description: (§1) To determine whether addictive drugs other than ethanol would cause translocation of some proteins, we examine the effects of various receptor agonists and antagonists on ε-PKC δ-PKC or PKA Cα translocation in NG108-15 and CHO cells expressing the applicable receptor. […] Adenosine is also implicated in some behavioral effects of ethanol.
(§2) The mechanisms underlying ethanol- and dopamine-mediated translocation of ε-PKC and δ-PKC were studied by altering the activity of various molecules that might be in the pathways leading to translocation.

[2] = system: CRE-regulated luciferase expression; assay: CRE-luciferase reporter in NG108-15 cells; format: cell-based; conditions: NG108-15 cells; for increase in luciferase activity above control: 200 mM ethanol
Procedure: Luciferase is used as a reporter gene in a transient expression system to identify substances that alter the effects of ethanol on CRE-regulated gene expression. Cells are cultured as described in Dohrman et al., Proc Natl Acad Sci USA (1996) 93:10217-10221, and are transfected using Effectene (Qiagene) as described by the manufacturers. Twenty-four hours after transfection the cells are treated with 200 mM ethanol for 30 min. to 36 hr. Luciferase activity is measured using Luciferase Assay System (Promega) and normalized to β-galactosidase activity.
(§3) NG108-15 cells were co-transfected with a fusion construct containing the cAMP response element (CRE) fused to luciferase as a reporter gene (Stratagene).
Since the ERK/MAPK pathway may regulate CREB phosphorylation and CRE-mediated gene expression, NG108-15 cells having the luciferase construct were co-incubated with 200 mM ethanol and a MEK inhibitor (PD98059 (2 nM, Calbiochem, San Diego, Calif.) or U0126 (1 μM, Calbiochem, San Diego, Calif.)) or a dominant negative MEK construct (DN-MEK, Dr. R. Seger) in which Lys-97 was replaced by alanine.
as §3

ε-PKC [3] = format: cell-based; conditions: NG 108-15 or CHO cells; Ethanol 200 mM, 30 min; no compound: Perinucleus
Procedure: NG 108-15 or CHO cells were pre-incubated in the presence or absence of the indicated inhibitor for 30 min. (except for GF which was pre-incubated for 1 hour), then further incubated in the absence or presence of 200 mM ethanol for 30 min.

ε-PKC [4] = format: cell-based; conditions: NG108-15 cells; for ε-PKC (% cells) Cytoplasmic staining / ε-PKC (% cells) Perinuclear staining: EtOH exposure, n = 5; for ε-PKC (% cells) Cytoplasmic staining: control 5 ± 2; for ε-PKC (% cells) Perinuclear staining: control 95 ± 2
Procedure: (§4) Naive NG108-15 cells were, therefore, incubated in for ten (10) min. in 100 nM PMA, to then determine localization of δ-PKC and ε-PKC.

δ-PKC [5] = format: cell-based; conditions: NG108-15 cells
Procedure: as §4

GFP-RIIβ = conditions: +100 mM EtOH 30 min, unstimulated: Golgi Apparatus
GFP-Cα = format: cell-based
PKCδ-GFP = conditions: +100 mM EtOH/30 min; for Subcellular Localization of PKCδ-GFP: unstimulated: Golgi Apparatus
ε-PKC [6] = assay: Translocation of ε-PKC in NG108-15 and CHO cells expressing the applicable receptor; format: cell-based
Description: as §1, §2

[7] = system: Ethanol-indicative proteins in CHO cells
Description: (§5) The particular protein and cellular subregion(s) selected for examination can vary depending on the cell type to be used in a particular method. Cells used in the methods of the invention are of a cell type in which the selected protein is predominantly present in a different amount in a particular cellular subregion of ethanol-exposed cells compared to ethanol-unexposed cells. […] One of skill in the art can readily determine the intracellular distribution of other ethanol indicative proteins by staining ethanol-exposed and ethanol-unexposed cells of various cell types with stains (e.g., antibodies) specific for such proteins.

[8] = system: Ethanol-indicative proteins in NG108 cells; conditions: ethanol 10 minutes or 12-48 hours
Description: as §5

[9] = system: Ethanol-indicative proteins in Purkinje cells; conditions: Purkinje cells in brain section; ethanol 72 hr exposure; EUC origin Cytoplasm
Description: as §5

[10] = system: Ethanol-indicative proteins in lymphocytes; conditions: Lymphocyte; ethanol-exposed; EUC origin Cytoplasm
Description: as §5

[11] = system: CREB (GAL4-CREB fusion, luciferase reporter); assay: GAL4-CREB / GAL4-luciferase reporter in NG108-15 cells; format: cell-based; conditions: ethanol exposure
Procedure: Cells are cultured as described in Dohrman et al., Proc Natl Acad Sci USA (1996) 93:10217-10221, and are transfected using Effectene (Qiagene) as described by the manufacturers. […] Luciferase activity is measured using Luciferase Assay System (Promega) and normalized to β-galactosidase activity.
NG108-15 cells are co-transfected with a GAL4-CREB fusion construct and with a second construct containing the DNA binding site of GAL4 fused to luciferase as a reporter gene. […] The ethanol-induced increase in luciferase activity induced was inhibited by Rp-cAMPS but not by the CaMK and PKC inhibitors KN-62 and GF, respectively (FIGS. 15 and 16B).

PKA Cα [12] = format: cell-based
Description: as §1

PKA Cα [13] = assay: PKA Cα translocation in primary cultures of hippocampal neurons
CREB phosphorylation = CREB phosphorylation measured with antibody specific for phosphorylated CREB; format: cell-based
PKA Cα [14] = assay: PKA Cα translocation in NG108-15/D2 cells (immunocytochemistry, cell fractionation/western)
[15] = system: CRE-mediated gene expression; assay: CRE-luciferase reporter assay in NG108-15/D2 cells
Procedure: Cells were transiently transfected with a CRE-luciferase reporter construct to measure gene expression via endogenous CRE-binding protein (CREB).
NG108-15/D2 cells were plated at 1×10^6 cells/100 mm plate, grown in defined medium for 3 days, and then transfected with 10 μg of CRE-luciferase construct using the LipofectAMINE reagent (GIBCOL) as recommended by the manufacturer. Cells were cultured for 24 h post transfection before being seeded into 12-well plates. […] Cells were then washed with PBS and cultured for a total of 5 h. Cell extracts were prepared and luciferase activity measured with a luciferase assay system (Promega, Madison, Wis.), using a Rosys Anthos Lucy2 microplate luminometer (Anthos Labtec Instruments, Austria). Results are expressed as percent increase over control. Data represent three or more separate experiments from triplet wells. Luciferase activities were normalized for transfection efficiency determined in cells transfected in parallel with pCMVβgalactosidase. β-galactosidase activity was measured using a kit from Strategene (La Jolla, Calif.).

[16] = ethanol 10′ exposure, EUC origin Perinucleus

## CCO [Ethanol, ethanol]
δ-PKC [1]; 200 mM Ethanol or 50 nM NPA, None: Golgi
  Predominant Localization of δ-PKC (agent alone): Perinucleus &
δ-PKC [1]; D2-receptor-expressing NG108-15 and CHO cells, 10^−9 M NPA or 25 mM ethanol alone
  Translocation of δ PKC and δ PKC, agent alone: neither agent alone caused translocation
[2]; 50 mM ethanol, 14-hour exposure
  increase in luciferase activity: about 25%
[2]; 4 hour exposure
  increase in luciferase activity above control: 29±6%
[2]; 14 hours of exposure
  increase in luciferase activity above control: 79±4%
[2]; ethanol exposure
  increase of expression of luciferase (CRE-luciferase): more than 2 fold
ε-PKC [3]
  Predominant ε-PKC Localization: Cytoplasm
ε-PKC [4]; 25 mM ethanol, 4 days
  ethanol-induced altered localization of ε-PKC: also observed
ε-PKC [4]; listed as EtOH
  ε-PKC (% cells) Cytoplasmic staining: 94 ± 2 % cells
  ε-PKC (% cells) Perinuclear staining: 94 ± 3 % cells
ε-PKC [4]; listed as ethanol
  ε-PKC (% cells) Cytoplasmic staining: more than 90 % cells
  ε-PKC (% cells) Perinuclear staining: more than 90 % cells
δ-PKC [5]; 25 mM ethanol, 4 days
  ethanol-induced altered localization of δ-PKC: also observed
δ-PKC [5]; 200 mM EtOH 48 hours, n = 5, control 74 ± 7
  δ-PKC (% cells) Golgi Staining: 2 ± 2 % cells
δ-PKC [5]; 200 mM EtOH, 48 hours
  localization of δ-PKC: localized to the perinucleus and nucleus and absent from the Golgi
GFP-RIIβ; 1° Glia
  Subcellular Localization of GFP-RIIβ: Golgi Apparatus
GFP-RIIβ; 1° Neurons
  Subcellular Localization of GFP-RIIβ: Golgi Apparatus
GFP-RIIβ; NG108-15/D2R
  Subcellular Localization of GFP-RIIβ: Golgi Apparatus
GFP-Cα; 1° Glia (rat hippocampus culture), +100 mM EtOH/30 min or 50 nM NPA/30 min, unstimulated: Golgi Apparatus
  Subcellular localization of GFP-Cα: Nucleus
GFP-Cα; 1° Glia, +100 mM EtOH/30 min or 50 nM NPA/30 min
  cells showing the stated localization of GFP-Cα: [<20% cells]
GFP-Cα; 1° Neurons (rat hippocampus culture), +100 mM EtOH/30 min, unstimulated: Golgi Apparatus
  Subcellular localization of GFP-Cα: Nucleus
GFP-Cα; 1° Neurons, +100 mM EtOH/30 min
  cells showing the stated localization of GFP-Cα: [>50% cells]
GFP-Cα; NG108-15/D2R, +100 mM EtOH/30 min or 50 nM NPA/30 min
  cells showing the stated localization of GFP-Cα: [>50% cells]
GFP-Cα; NG108-15/D2R, +100 mM EtOH/30 min or 50 nM NPA/30 min, unstimulated: Golgi Apparatus
  Subcellular localization of GFP-Cα: Nucleus
PKCδ-GFP; 1° Glia
  Subcellular Localization of PKCδ-GFP: Golgi Apparatus
PKCδ-GFP; NG108-15/D2R
  cells showing the stated localization of PKCδ-GFP: [>50% cells]
  Subcellular Localization of PKCδ-GFP: Perinucleus/
ε-PKC [6]; NG108-15 cells expressing the applicable receptor, 200 mM Ethanol, 50 nM NPA, 1 μM D-ala-D-leu-enkephalin, 2 μM R(+) methanindamide, 20 μM Carbachol, 10^−5 M UK14304, 20 nM CCPA, 100 nM CGS-21680 HCl, None: Perinucleus
  Predominant Localization of ε-PKC (agent alone): Cytoplasm
[7]; [16]
  Cellular subregion in which the protein is predominantly present, EEC (Destination): RACK 2 (β′COP): Cytoplasm
  Cellular subregion in which the protein is predominantly present, EEC (Destination): ε-PKC: Cytoplasm
[7]; ethanol 10 minutes or 12-48 hours, EUC origin Golgi
  Cellular subregion in which the protein is predominantly present, EEC (Destination): δ-PKC: Perinucleus and nucleus
[8]; EUC origin Golgi
  Cellular subregion in which the protein is predominantly present, EEC (Destination): RIIβ: Nucleus
  Cellular subregion in which the protein is predominantly present, EEC (Destination): δ-PKC: Perinucleus and nucleus
[8]; EUC origin Nucleus
  Cellular subregion in which the protein is predominantly present, EEC (Destination): Protein Phosphatase I and IIB: Cytoplasm
[8]; EUC origin Perinucleus
  Cellular subregion in which the protein is predominantly present, EEC (Destination): RACK 2 (β′COP): Cytoplasm
  Cellular subregion in which the protein is predominantly present, EEC (Destination): ε-PKC: Cytoplasm
[9]
  Cellular subregion in which the protein is predominantly present, EEC (Destination): ε-PKC: Not detectable
[10]
  Cellular subregion in which the protein is predominantly present, EEC (Destination): δ-PKC: Cytoplasm
  Cellular subregion in which the protein is predominantly present, EEC (Destination): ε-PKC: Cytoplasm
[11]
  increase of expression of luciferase (GAL4-CREB / GAL4-luciferase): approximately 2 fold

## CCCN1CCc2cccc3c2[C@H]1Cc1ccc(O)c(O)c1-3 [NPA, R(−)-10,11-dihydroxy-N-n-propylnorapomorphine]
δ-PKC [1]
  Predominant Localization of δ-PKC (agent alone): Perinucleus &
  Translocation of δ PKC and δ PKC, agent alone: neither agent alone caused translocation
  Translocation of δ PKC and δ PKC, co-incubation of NPA and ethanol: induced
PKA Cα [12]
  Predominant Localization of PKA Cα (agent alone): Nucleus &
  translocation of PKA-Cα, agent alone: did not cause any perceptible translocation
  translocation of PKA-Cα, co-incubation of ethanol and NPA: maximal translocation
GFP-Cα
  Subcellular localization of GFP-Cα: Nucleus
  cells showing the stated localization of GFP-Cα: [>50% cells]
PKA Cα [13]
  PKA Cα localization after agonist or ethanol: PKA Cα translocation to the cytoplasm, neurites and nucleus
  PKA Cα translocation, subthreshold NPA and ethanol together: Synergy of PKA Cα translocation occurs
ε-PKC [6]
  Predominant Localization of ε-PKC (agent alone): Cytoplasm
CREB phosphorylation
  levels of CREB phosphorylation, co-incubation of ethanol and NPA: synergistic interactions
PKA Cα [14]
  PKA Cα in subcellular fractions (Western blot): translocation of PKA Cα from the membrane fraction to the nucleus and cytoplasm
  PKA Cα localization after agonist or ethanol (immunostaining): translocation of PKA Cα from the Golgi into the cytoplasm and nucleus
  PKA Cα translocation, subthreshold NPA and ethanol together: striking synergistic increase
  PKA translocation at subthreshold concentration, agent alone: did not cause PKA translocation
  time at which NPA-induced PKA Cα translocation reaches a maximum: 10 min
PKA Cα [14]; read-out: Km of NPA-induced PKA Cα translocation (function of NPA concentration)
  Km: 1.6 nM
[15]
  CRE-mediated luciferase activity, subthreshold NPA and ethanol together: striking synergistic increase
  luciferase activity (CRE-luciferase): increases luciferase activity to the same extent as forskolin
